The source of these data is US20080280891A1, “Anti-cancer agents and uses thereof” (Locus Pharmaceuticals, Inc., priority 2006, published 2008).

For test [1], the system named is NCI-H522 non small cell lung cancer cells. Put plainly: Cell cycle assay (Example 164), G2/M block in NCI-H522 cells. The class given is cell-based. Conditions: Homo sapiens; for activation at 0.1 µM: 24 h, flow cytometry (PI). As for the experimental part: (§1) The adherent MCF-7 breast cancer cells and NCI-H522 non small cell lung cancer cells were grown and maintained in EMEM cell culture media containing 10% fetal calf serum.
(§2) Cells were allowed to adhere for 24 hrs. After adherence, cell culture media was changed to that containing 0.5% FCS. Thirty minutes post-media change, test compounds were added at a concentration of either 1.0 or 0.1 μM (as specified in the Tables). Twenty-four hours after test agent addition, cells were analyzed for cell cycle status as described below.
(§3) Cell cycle status was analyzed by flow cytometry. Briefly, cells were collected and washed with FACs buffer (Pharmingen) and resuspended and fixed in 1 mL of 80% ethanol for 1 hr. Cells were washed with FACs buffer and resuspended in propidium iodide(PI)/RNase staining buffer (Pharmingen). PI is a fluorescent dye that labels nucleic acids such as DNA. The fluorescence within a cell (in the presence of PI) is proportional to the amount of DNA within a cell. The cell content of DNA is an indicator of status in the cell cycle. […] Cells in the S phase have DNA content that lies between these extremes.
(§4) For testing of cell cycle effects of test agents the percentage of cells within the G1 and G2/M phase were measured.
For orientation: In flow cytometry, cells or beads pass a laser one at a time.

For test [2], the system named is MCF-7 breast cancer cells. Put plainly: Cell cycle assay (Example 164), G2/M block in MCF-7 cells. The class given is cell-based. Conditions: for activation at 0.1 µM / IC50: Homo sapiens, MCF7; for activation at 0.1 µM: Table 4; for IC50: MCF-7, footnotes * and ** of Table 4, read-out: IC50 (footnote mark in column MCF-7 G2/M Block). On the procedure:
as §1, §2, §3, §4

Where only a bound is given, the exact number is not on record here.

With `CS(=O)(=O)Nc1cc(C(=O)c2ccnc(N3CCOCC3)c2)cc(-c2cccc3[nH]ccc23)c1` [N-[3-(1H-Indol-4-yl)-5-(2-morpholin-4-yl-pyridine-4-carbonyl)-phenyl]-methanesulfonamide], the activation at 0.1 µM in test [1] (Table 4) is at least 50%; in test [2] (24 h, flow cytometry (PI)), at least 50%.
`CS(=O)(=O)Nc1cc(C(=O)c2ccnc(N3CCSCC3)c2)cc(-c2cccc3[nH]ccc23)c1` [N-[3-(1H-Indol-4-yl)-5-(2-thiomorpholin-4-yl-pyridine-4-carbonyl)-phenyl]-methanesulfonamide]: the activation at 0.1 µM was at least 50% in test [1] (Table 4) and at least 50% in test [2] (24 h, flow cytometry (PI)).
For `CS(=O)(=O)Nc1cc(C(=O)c2ccnc(N3CCCCC3)c2)cc(-c2cccc3[nH]ccc23)c1` [N-[3-(1H-Indol-4-yl)-5-(3,4,5,6-tetrahydro-2H-[1,2′]bipyridinyl-4′-carbonyl)-phenyl]-methanesulfonamide], the activation at 0.1 µM in test [1] (Table 4) is at least 50%; in test [2] (24 h, flow cytometry (PI)), below 50%.
As for `COc1ccc(-c2cc(NC(C)=O)cc(-c3cccc4[nH]ccc34)c2)cn1` [N-[3-(1H-Indol-4-yl)-5-(6-methoxy-pyridin-3-yl)-phenyl]-acetamide], the activation at 0.1 µM was at least 50% in test [1] (Table 4) and at least 50% in test [2] (24 h, flow cytometry (PI)).
For the compound `COc1ccc(-c2cc(NS(C)(=O)=O)cc(-c3cccc4[nH]ccc34)c2)cn1` [N-[3-(1H-Indol-4-yl)-5-(6-methoxy-pyridin-3-yl)-phenyl]-methanesulfonamide], the activation at 0.1 µM in test [1] (Table 4) is at least 50%; in test [2] (24 h, flow cytometry (PI)) it was at least 50%.
With `CC(=O)Nc1cc(-c2cccnc2)cc(-c2cccc3[nH]ccc23)c1` [N-[3-(1H-Indol-4-yl)-5-pyridin-3-yl-phenyl]-acetamide], the activation at 0.1 µM in test [1] (Table 4) is at least 50%; in test [2] (24 h, flow cytometry (PI)) it was at least 50%.
Consider `CC(=O)Nc1cc(-c2ccncc2)cc(-c2cccc3[nH]ccc23)c1` [N-[3-(1H-Indol-4-yl)-5-pyridin-4-yl-phenyl]-acetamide], for which the activation at 0.1 µM in test [1] (Table 4) is at least 50%; in test [2] (24 h, flow cytometry (PI)), at least 50%.
Consider `CS(=O)(=O)Nc1cc(-c2ccnc(N)n2)cc(-c2cccc3[nH]ccc23)c1` [N-[3-(2-Amino-pyrimidin-4-yl)-5-(1H-indol-4-yl)-phenyl]-methanesulfonamide], for which the activation at 0.1 µM in test [1] (Table 4) is at least 50%; in test [2] (24 h, flow cytometry (PI)), at least 50%.
`CS(=O)(=O)Nc1cc(-c2ccnc(Cl)c2)cc(-c2cccc3[nH]ccc23)c1` [N-[3-(2-Chloro-pyridin-4-yl)-5-(1H-indol-4-yl)-phenyl]-methanesulfonamide]: the activation at 0.1 µM in test [1] (Table 4) was at least 50%; in test [2] (24 h, flow cytometry (PI)), at least 50%.
With `CC(=O)Nc1cc(C(=O)c2cc(C)nc(N(C)C)c2)cc(-c2cccc3[nH]ccc23)c1` [N-[3-(2-Dimethylamino-6-methyl-pyridine-4-carbonyl)-5-(1H-indol-4-yl)-phenyl]-acetamide], the activation at 0.1 µM is at least 50% in test [1] (Table 4) and at least 50% in test [2] (24 h, flow cytometry (PI)).
`Cc1cc(C(=O)c2cc(NS(C)(=O)=O)cc(-c3cccc4[nH]ccc34)c2)cc(N(C)C)n1` [N-[3-(2-Dimethylamino-6-methyl-pyridine-4-carbonyl)-5-(1H-indol-4-yl)-phenyl]-methanesulfonamide]: the activation at 0.1 µM in test [1] (Table 4) is at least 50%; in test [2] (24 h, flow cytometry (PI)), at least 50%.
`CC(=O)Nc1cc(C(=O)c2ccnc(N(C)C)c2)cc(-c2cccc3[nH]ccc23)c1` [N-[3-(2-Dimethylamino-pyridine-4-carbonyl)-5-(1H-indol-4-yl)-phenyl]-acetamide]: the activation at 0.1 µM in test [1] (Table 4) was at least 50%; in test [2] (24 h, flow cytometry (PI)), at least 50%.
`CN(C)c1cc(C(=O)c2cc(NS(C)(=O)=O)cc(-c3cccc4[nH]ccc34)c2)ccn1` [N-[3-(2-Dimethylamino-pyridine-4-carbonyl)-5-(1H-indol-4-yl)-phenyl]-methanesulfonamide]: the activation at 0.1 µM in test [1] (Table 4) was at least 50%; in test [2] (24 h, flow cytometry (PI)), at least 50%.
For the compound `CS(=O)(=O)Nc1cc(-c2nc3ccccc3o2)cc(-c2cccc3[nH]ccc23)c1` [N-[3-Benzoxazol-2-yl-5-(1H-indol-4-yl)-phenyl]-methanesulfonamide], the activation at 0.1 µM was at least 50% in test [1] (Table 4) and at least 50% in test [2] (24 h, flow cytometry (PI)).
For `CS(=O)(=O)Nc1cc(-c2ccc3c(c2)OCO3)cc(-c2cccc3[nH]ccc23)c1` [N-[3-benzo[1,3]dioxol-5-yl-5-(1H-indol-4-yl)-phenyl]-methanesulfonamide], the activation at 0.1 µM is at least 50% in test [1] (Table 4) and at least 50% in test [2] (24 h, flow cytometry (PI)).
Turning to `CC(=O)Nc1cc(-c2ccc(F)cc2F)cc(-c2cccc3[nH]ccc23)c1` [N-[5-(1H-Indol-4-yl)-2′,4′-difluoro-biphenyl-3-yl]-acetamide], the activation at 0.1 µM was at least 50% in test [1] (Table 4) and at least 50% in test [2] (24 h, flow cytometry (PI)).
For the compound `CS(=O)(=O)Nc1cc(-c2ccc(F)cc2F)cc(-c2cccc3[nH]ccc23)c1` [N-[5-(1H-Indol-4-yl)-2′,4′-difluoro-biphenyl-3-yl]-methanesulfonamide], the activation at 0.1 µM in test [1] (Table 4) was at least 50%; in test [2] (24 h, flow cytometry (PI)), below 50%.
With `CC(=O)Nc1cc(-c2cccc(C)c2)cc(-c2cccc3[nH]ccc23)c1` [N-[5-(1H-Indol-4-yl)-3′-methyl-biphenyl-3-yl]-acetamide], the activation at 0.1 µM in test [1] (Table 4) was at least 50%; in test [2] (24 h, flow cytometry (PI)) it was at least 50%.
Regarding `Cc1cccc(-c2cc(NS(C)(=O)=O)cc(-c3cccc4[nH]ccc34)c2)c1` [N-[5-(1H-Indol-4-yl)-3′-methyl-biphenyl-3-yl]-methanesulfonamide], the activation at 0.1 µM in test [1] (Table 4) was at least 50%; in test [2] (24 h, flow cytometry (PI)) it was at least 50%.
For the compound `CC(=O)Nc1cc(-c2ccc(C(F)(F)F)cc2)cc(-c2cccc3[nH]ccc23)c1` [N-[5-(1H-Indol-4-yl)-4′-trifluoromethyl-biphenyl-3-yl]-acetamide], the activation at 0.1 µM in test [1] (Table 4) was below 50%; in test [2] (24 h, flow cytometry (PI)) it was below 50%. Besides, the IC50 in test [1] (H522, footnotes * and ** of Table 4, read-out: IC50 (footnote mark in H522 G2/M Block)) lay within 100 to 1000 nM; in test [2], 100 to 1000 nM.
As for `CS(=O)(=O)Nc1cc(-c2cccc([N+](=O)[O-])c2)cc(-c2cccc3[nH]ccc23)c1` [N-[5-(1H-indol-4-yl)-3′-nitro-biphenyl-3-yl]-methanesulfonamide], the activation at 0.1 µM in test [1] (Table 4) was at least 50%; in test [2] (24 h, flow cytometry (PI)), at least 50%.
As for `CS(=O)(=O)Nc1cc(-c2cccc(C(F)(F)F)c2)cc(-c2cccc3[nH]ccc23)c1` [N-[5-(1H-indol-4-yl)-3′-trifluoromethyl-biphenyl-3-yl]-methanesulfonamide], the activation at 0.1 µM in test [1] (Table 4) is at least 50%; in test [2] (24 h, flow cytometry (PI)), at least 50%.
In test [1] (Table 3), `Nc1ccc(-c2cccc3[nH]ccc23)cc1C(=O)c1cccnc1` [[2-Amino-5-(1H-indol-4-yl)-phenyl]-pyridin-3-yl-methanone] registered an activation at 0.1 µM of at least 50%. The “MCF-7 G2/M Block 1 μM” value in test [2] (1 μM, 24 h, flow cytometry (PI), Table 3) is recorded as “Y (Y indicates a 50% or greater increase in the number of cells in the G2/M phase, as compared to control)”.
On to `COC(=O)Nc1cc(C(=O)c2ccnc(OC)c2)cc(-c2cccc3[nH]ccc23)c1` [[3-(1H-Indol-4-yl)-5-(2-methoxy-pyridine-4-carbonyl)-phenyl]-carbamic acid methyl ester], for which the activation at 0.1 µM in test [1] (Table 4) was below 50%; in test [2] (24 h, flow cytometry (PI)), at least 50%.
As for `COC(=O)Nc1cc(C(=O)c2cc(C)nc(N3CCOCC3)c2)cc(-c2cccc3[nH]ccc23)c1` [[3-(1H-Indol-4-yl)-5-(2-methyl-6-morpholin-4-yl-pyridine-4-carbonyl)-phenyl]-carbamic acid methyl ester], the activation at 0.1 µM is at least 50% in test [1] (Table 4) and at least 50% in test [2] (24 h, flow cytometry (PI)).
Consider `COC(=O)Nc1cc(C(=O)c2ccnc(C)c2)cc(-c2cccc3[nH]ccc23)c1` [[3-(1H-Indol-4-yl)-5-(2-methyl-pyridine-4-carbonyl)-phenyl]-carbamic acid methyl ester], for which the activation at 0.1 µM in test [1] (Table 4) was at least 50%; in test [2] (24 h, flow cytometry (PI)), below 50%.
The like results for `COC(=O)Nc1cc(C(=O)c2ccnc(N3CCOCC3)c2)cc(-c2cccc3[nH]ccc23)c1` [[3-(1H-Indol-4-yl)-5-(2-morpholin-4-yl-pyridine-4-carbonyl)-phenyl]-carbamic acid methyl ester] were, in that order, at least 50% and at least 50%.
As to `COC(=O)Nc1cc(-c2ccc(OC)nc2)cc(-c2cccc3[nH]ccc23)c1` [[3-(1H-Indol-4-yl)-5-(6-methoxy-pyridin-3-yl)-phenyl]-carbamic acid methyl ester], the activation at 0.1 µM in test [1] (Table 4) was at least 50%; in test [2] (24 h, flow cytometry (PI)), below 50%. Further, in test [2], the IC50 lay within 100 to 1000 nM.
Regarding `COC(=O)Nc1cc(-c2cccnc2)cc(-c2cccc3[nH]ccc23)c1` [[3-(1H-Indol-4-yl)-5-pyridin-3-yl-phenyl]-carbamic acid methyl ester], the activation at 0.1 µM in test [1] (Table 4) was at least 50%; in test [2] (24 h, flow cytometry (PI)) it was below 50%.
The matching figures for `COC(=O)Nc1cc(-c2ccncc2)cc(-c2cccc3[nH]ccc23)c1` [[3-(1H-Indol-4-yl)-5-pyridin-4-yl-phenyl]-carbamic acid methyl ester]: at least 50% and at least 50%.
